Reference: ChEMBL document CHEMBL5291721, “A preclinical secondary pharmacology resource illuminates target-adverse drug reaction associations of marketed drugs” (Nat Commun, 2023)

Tests used:
[1] = target: T1, Alpha-2A adrenergic receptor (Homo sapiens, UniProt P08913); type: functional, cell-based
T1 sequence (P08913 whole entry): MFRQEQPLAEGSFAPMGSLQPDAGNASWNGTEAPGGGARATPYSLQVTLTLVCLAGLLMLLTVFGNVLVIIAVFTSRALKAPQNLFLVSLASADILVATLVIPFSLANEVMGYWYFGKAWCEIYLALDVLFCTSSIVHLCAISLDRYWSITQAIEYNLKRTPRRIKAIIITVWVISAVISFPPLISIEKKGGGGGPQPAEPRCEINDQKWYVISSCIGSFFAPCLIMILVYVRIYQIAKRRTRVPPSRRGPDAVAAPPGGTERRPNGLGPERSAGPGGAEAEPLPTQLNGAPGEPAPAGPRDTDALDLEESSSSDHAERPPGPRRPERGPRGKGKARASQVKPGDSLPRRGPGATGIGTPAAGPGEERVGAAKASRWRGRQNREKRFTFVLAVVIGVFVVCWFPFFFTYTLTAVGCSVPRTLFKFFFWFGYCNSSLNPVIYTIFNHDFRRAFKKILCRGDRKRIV

B2 bradykinin receptor = target: T2, B2 bradykinin receptor (Homo sapiens, UniProt P30411)
T2 sequence (P30411 whole entry): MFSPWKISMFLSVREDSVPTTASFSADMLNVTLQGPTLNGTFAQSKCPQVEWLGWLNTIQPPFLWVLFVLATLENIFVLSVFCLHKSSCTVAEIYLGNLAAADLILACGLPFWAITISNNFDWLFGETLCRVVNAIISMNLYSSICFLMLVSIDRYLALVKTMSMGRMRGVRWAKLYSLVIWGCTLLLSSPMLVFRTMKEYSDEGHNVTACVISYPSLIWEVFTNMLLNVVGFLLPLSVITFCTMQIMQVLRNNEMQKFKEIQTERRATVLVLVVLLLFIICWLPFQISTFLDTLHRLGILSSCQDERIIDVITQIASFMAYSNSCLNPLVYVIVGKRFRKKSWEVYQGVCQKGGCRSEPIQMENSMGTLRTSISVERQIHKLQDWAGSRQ

[2] = target: T3, Gastrin/cholecystokinin type B receptor (Homo sapiens, UniProt P32239)
T3 sequence (P32239 whole entry): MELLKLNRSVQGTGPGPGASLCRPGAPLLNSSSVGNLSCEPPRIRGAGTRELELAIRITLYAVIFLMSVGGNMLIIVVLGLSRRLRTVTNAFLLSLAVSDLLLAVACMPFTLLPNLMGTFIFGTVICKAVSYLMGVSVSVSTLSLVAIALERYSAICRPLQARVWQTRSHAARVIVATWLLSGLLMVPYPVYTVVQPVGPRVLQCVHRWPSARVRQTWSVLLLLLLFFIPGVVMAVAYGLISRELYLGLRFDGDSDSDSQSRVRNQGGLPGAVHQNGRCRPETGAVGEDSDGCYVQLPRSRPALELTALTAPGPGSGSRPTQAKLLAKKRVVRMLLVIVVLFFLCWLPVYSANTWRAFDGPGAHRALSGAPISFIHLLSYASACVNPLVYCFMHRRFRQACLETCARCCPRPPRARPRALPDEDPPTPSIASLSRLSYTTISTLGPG

D(1A) dopamine receptor = D(1A) dopamine receptor (Homo sapiens, UniProt P21728); type: functional, cell-based
[3] = target: T4, 5-hydroxytryptamine receptor 1A (Homo sapiens, UniProt P08908); type: functional, cell-based
T4 sequence (P08908 whole entry): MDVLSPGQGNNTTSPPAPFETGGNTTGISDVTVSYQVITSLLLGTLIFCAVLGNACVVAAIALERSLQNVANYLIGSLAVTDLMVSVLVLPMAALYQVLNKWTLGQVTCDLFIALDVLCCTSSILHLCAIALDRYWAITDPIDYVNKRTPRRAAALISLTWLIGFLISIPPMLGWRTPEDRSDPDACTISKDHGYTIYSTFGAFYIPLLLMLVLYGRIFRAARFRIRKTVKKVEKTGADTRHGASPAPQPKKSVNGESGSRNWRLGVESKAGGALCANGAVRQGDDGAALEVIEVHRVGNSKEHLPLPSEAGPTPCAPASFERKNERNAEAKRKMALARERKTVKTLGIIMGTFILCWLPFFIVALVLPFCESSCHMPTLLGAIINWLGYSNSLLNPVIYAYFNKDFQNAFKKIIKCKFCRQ

[4] = target: 5-hydroxytryptamine receptor 2B (Homo sapiens, UniProt P41595); type: functional, cell-based
[5] = target: T5, 5-hydroxytryptamine receptor 3A (Homo sapiens, UniProt P46098); type: functional
T5 sequence (P46098 whole entry): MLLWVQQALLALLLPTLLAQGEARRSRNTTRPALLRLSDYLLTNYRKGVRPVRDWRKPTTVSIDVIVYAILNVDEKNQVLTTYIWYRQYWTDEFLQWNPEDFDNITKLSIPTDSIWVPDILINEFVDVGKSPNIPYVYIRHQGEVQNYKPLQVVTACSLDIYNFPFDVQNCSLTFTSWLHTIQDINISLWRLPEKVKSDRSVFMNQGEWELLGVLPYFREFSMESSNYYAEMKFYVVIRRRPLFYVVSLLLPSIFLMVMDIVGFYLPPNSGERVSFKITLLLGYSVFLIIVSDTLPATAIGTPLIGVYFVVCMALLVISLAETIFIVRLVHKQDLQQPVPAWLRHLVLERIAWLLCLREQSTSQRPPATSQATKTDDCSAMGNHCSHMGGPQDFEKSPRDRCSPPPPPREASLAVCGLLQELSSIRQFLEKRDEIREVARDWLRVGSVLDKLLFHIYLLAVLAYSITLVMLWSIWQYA

[6] = target: Delta-type opioid receptor (Homo sapiens, UniProt P41143)
[7] = target: Sodium-dependent noradrenaline transporter (Homo sapiens, UniProt P23975)
Further: assay procedure not described here.

5-hydroxytryptamine receptor 2B, sequence (P41595 whole entry): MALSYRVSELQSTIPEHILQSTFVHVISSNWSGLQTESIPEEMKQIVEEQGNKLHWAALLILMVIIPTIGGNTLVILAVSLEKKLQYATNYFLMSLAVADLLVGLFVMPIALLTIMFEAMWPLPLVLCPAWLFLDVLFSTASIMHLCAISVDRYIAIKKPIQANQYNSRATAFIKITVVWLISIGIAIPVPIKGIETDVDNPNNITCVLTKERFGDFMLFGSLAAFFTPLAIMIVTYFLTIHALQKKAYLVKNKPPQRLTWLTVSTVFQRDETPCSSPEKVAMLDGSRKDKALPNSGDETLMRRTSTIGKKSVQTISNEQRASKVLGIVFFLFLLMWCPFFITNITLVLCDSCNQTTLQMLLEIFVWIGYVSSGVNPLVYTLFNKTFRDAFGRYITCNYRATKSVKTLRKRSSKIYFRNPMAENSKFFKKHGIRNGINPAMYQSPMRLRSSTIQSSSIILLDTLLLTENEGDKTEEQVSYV
Sodium-dependent noradrenaline transporter, sequence (P23975 whole entry): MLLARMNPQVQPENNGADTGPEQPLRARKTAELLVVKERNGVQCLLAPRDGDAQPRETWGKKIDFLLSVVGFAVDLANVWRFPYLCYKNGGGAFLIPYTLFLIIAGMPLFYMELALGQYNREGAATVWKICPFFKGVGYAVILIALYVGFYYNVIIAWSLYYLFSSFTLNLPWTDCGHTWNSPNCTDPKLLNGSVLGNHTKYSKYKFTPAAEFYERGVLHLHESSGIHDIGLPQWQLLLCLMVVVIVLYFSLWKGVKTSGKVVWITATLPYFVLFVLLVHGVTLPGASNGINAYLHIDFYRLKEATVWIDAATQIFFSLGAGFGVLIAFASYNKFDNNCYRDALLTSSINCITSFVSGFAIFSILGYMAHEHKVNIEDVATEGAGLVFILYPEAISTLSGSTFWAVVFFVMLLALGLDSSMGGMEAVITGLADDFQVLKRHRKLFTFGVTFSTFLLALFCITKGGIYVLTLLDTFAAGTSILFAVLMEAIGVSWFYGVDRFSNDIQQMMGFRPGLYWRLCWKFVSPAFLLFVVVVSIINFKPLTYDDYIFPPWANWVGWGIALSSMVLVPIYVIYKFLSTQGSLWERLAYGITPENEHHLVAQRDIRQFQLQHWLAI
Delta-type opioid receptor, sequence (P41143 whole entry): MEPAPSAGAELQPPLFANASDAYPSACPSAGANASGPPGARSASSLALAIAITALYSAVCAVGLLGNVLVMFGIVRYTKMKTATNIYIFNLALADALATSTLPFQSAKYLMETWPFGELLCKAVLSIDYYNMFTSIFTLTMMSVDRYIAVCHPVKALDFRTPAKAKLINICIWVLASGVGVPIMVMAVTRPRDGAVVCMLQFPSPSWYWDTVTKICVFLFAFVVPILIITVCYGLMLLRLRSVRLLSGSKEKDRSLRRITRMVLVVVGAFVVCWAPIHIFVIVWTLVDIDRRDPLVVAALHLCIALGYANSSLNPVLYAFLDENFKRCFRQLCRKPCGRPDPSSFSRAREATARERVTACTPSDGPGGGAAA
D(1A) dopamine receptor, sequence (P21728 whole entry): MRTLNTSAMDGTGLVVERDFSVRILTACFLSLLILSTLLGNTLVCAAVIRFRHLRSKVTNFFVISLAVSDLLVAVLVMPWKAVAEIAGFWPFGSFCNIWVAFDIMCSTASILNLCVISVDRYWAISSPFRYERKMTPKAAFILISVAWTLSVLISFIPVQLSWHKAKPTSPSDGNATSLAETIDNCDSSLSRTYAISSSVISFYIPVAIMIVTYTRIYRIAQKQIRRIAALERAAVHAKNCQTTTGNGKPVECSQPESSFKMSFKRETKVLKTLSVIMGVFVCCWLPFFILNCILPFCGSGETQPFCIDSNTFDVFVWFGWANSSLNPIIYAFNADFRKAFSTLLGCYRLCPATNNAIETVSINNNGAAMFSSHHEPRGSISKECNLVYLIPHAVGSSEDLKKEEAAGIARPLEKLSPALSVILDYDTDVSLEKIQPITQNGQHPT

`C=CC[N+]1([C@H]2C[C@H]3[C@@H]4CC[C@H]5C[C@H](O)[C@@H](N6CCOCC6)C[C@]5(C)[C@H]4CC[C@]3(C)[C@H]2OC(C)=O)CCCC1` [ROCURONIUM] was tested, and the AC50 [1] was greater than 30 µM, the AC50 (B2 bradykinin receptor) was greater than 30 µM and the AC50 [2] was greater than 30 µM. For the same compound, the AC50 (D(1A) dopamine receptor) was greater than 30 µM, the AC50 [3] was greater than 30 µM and the AC50 [4] was greater than 30 µM. The AC50 [5] was greater than 30 µM, the AC50 [6] was greater than 30 µM and the AC50 [7] was greater than 30 µM.
For `CCN1CC(CCN2CCOCC2)C(c2ccccc2)(c2ccccc2)C1=O` (stereo unspecified) [DOXAPRAM], the AC50 [1] was greater than 30 µM, the AC50 (B2 bradykinin receptor) was greater than 30 µM and the AC50 [2] was greater than 30 µM. It also gave an AC50 (D(1A) dopamine receptor) greater than 30 µM, an AC50 [3] greater than 30 µM and an AC50 [4] greater than 30 µM. It also gave an AC50 [5] greater than 30 µM, an AC50 [6] greater than 30 µM and an AC50 [7] greater than 30 µM.
With `O=C(NCCO[N+](=O)[O-])c1cccnc1` [NICORANDIL] the AC50 [1] was greater than 30 µM, the AC50 (B2 bradykinin receptor) was greater than 30 µM and the AC50 [2] was greater than 30 µM. It also gave an AC50 (D(1A) dopamine receptor) greater than 30 µM, an AC50 [3] greater than 30 µM and an AC50 [4] greater than 30 µM. The AC50 [5] was greater than 30 µM, the AC50 [6] was greater than 30 µM and the AC50 [7] was greater than 30 µM.
`CC(C)N(CCCCOCC(=O)O)c1cnc(-c2ccccc2)c(-c2ccccc2)n1` was tested, and the AC50 [1] was greater than 30 µM, the AC50 (B2 bradykinin receptor) was greater than 10 µM and the AC50 [2] was greater than 3 µM. It also gave an AC50 (D(1A) dopamine receptor) of 7.3 µM, an AC50 [3] greater than 30 µM and an AC50 [4] greater than 30 µM. It also gave an AC50 [5] greater than 30 µM, an AC50 [6] greater than 30 µM and an AC50 [7] greater than 30 µM.
In the case of `C[N+]12CCC(CC1)C(OC(=O)C(O)(c1ccccc1)c1ccccc1)C2` (stereo unspecified), the AC50 [1] is reported as greater than 30 µM, the AC50 (B2 bradykinin receptor) is reported as greater than 30 µM and the AC50 [2] is reported as greater than 30 µM. It also gave an AC50 (D(1A) dopamine receptor) greater than 30 µM, an AC50 [3] greater than 30 µM and an AC50 [4] greater than 30 µM. It also gave an AC50 [5] greater than 30 µM, an AC50 [6] greater than 30 µM and an AC50 [7] greater than 30 µM.
With `CCOC(=O)C(C)(C)Oc1ccc(Cl)cc1` [CLOFIBRATE] the AC50 [1] was greater than 10 µM, the AC50 (B2 bradykinin receptor) was greater than 30 µM and the AC50 [2] was greater than 30 µM. For the same compound, the AC50 (D(1A) dopamine receptor) was greater than 10 µM, the AC50 [3] was greater than 10 µM and the AC50 [4] was greater than 10 µM. For the same compound, the AC50 [5] was greater than 30 µM, the AC50 [6] was greater than 30 µM and the AC50 [7] was greater than 30 µM.
`C[C@@H]1C[C@H]2[C@@H]3CCC4=CC(=O)C=C[C@]4(C)[C@@]3(F)[C@@H](O)C[C@]2(C)[C@@]1(O)C(=O)CO` [DEXAMETHASONE] was tested, and the AC50 [1] was greater than 10 µM, the AC50 (B2 bradykinin receptor) was greater than 30 µM and the AC50 [2] was greater than 30 µM. For the same compound, the AC50 (D(1A) dopamine receptor) was greater than 30 µM, the AC50 [3] was greater than 10 µM and the AC50 [4] was greater than 10 µM. It also gave an AC50 [5] greater than 30 µM, an AC50 [6] greater than 30 µM and an AC50 [7] greater than 30 µM.
With `c1ccc(C2(N3CCCCC3)CCCCC2)cc1` [PHENCYCLIDINE] the AC50 [1] was greater than 30 µM, the AC50 (B2 bradykinin receptor) was greater than 30 µM and the AC50 [2] was greater than 30 µM. For the same compound, the AC50 (D(1A) dopamine receptor) was greater than 30 µM, the AC50 [3] was greater than 30 µM and the AC50 [4] was greater than 30 µM. It also gave an AC50 [5] greater than 30 µM, an AC50 [6] greater than 30 µM and an AC50 [7] of 12 µM.
`O=C1Nc2ccc(Cl)cc2C(c2ccccc2Cl)=NC1O` (stereo unspecified) [LORAZEPAM] showed an AC50 [1] greater than 10 µM, an AC50 (B2 bradykinin receptor) greater than 30 µM and an AC50 [2] greater than 30 µM. The AC50 (D(1A) dopamine receptor) was greater than 30 µM, the AC50 [3] was greater than 10 µM and the AC50 [4] was greater than 10 µM. For the same compound, the AC50 [5] was greater than 30 µM, the AC50 [6] was greater than 30 µM and the AC50 [7] was greater than 10 µM.
